Assay results taken from US20220387457A1 (Qlaris Bio, Inc., priority 2020, published 2022).

What was measured:
[1] = tested on: African green monkeys (IOP); test: Effect of CKLP1 on IOP in African green monkeys; assay type: in vivo, African green monkey
Method: To further validate the IOP lowering effects of CKLP1 in large animal models, one eye of five African green monkeys was treated with topical ocular administration of 10 mM CKLP1, while the contralateral eye received vehicle (PBS). Baseline IOP in control and treated eyes were 20.1±1.8 mmHg and 21.9±2.5 mmHg, respectively.
For treatment days, 10 mM CKLP1 (dissolved in PBS) was added to one eye of each monkey in a 50 μl topical ocular administration, once daily, for 7 consecutive days, while the contralateral eye received a 50 μl ocular administration of vehicle (PBS).

[2] = tested on: normotensive hound dogs (IOP); test: Dose response of CKLP1 on IOP in hound dogs; assay type: in vivo, hound dog; details: for IOP lowering: 5 consecutive days, vs baseline
Method: In order to determine the optimal topical ocular dose of CKLP1 for subsequent pharmacokinetic studies, hound dogs (n=3) were treated with four different concentrations of CKLP1 (5 mM, 10 mM, 15 mM and 20 mM) once daily for 5 consecutive days. […] No difference in IOP reduction was noted between the 10 and 15 mM doses (p=0.57). To utilize the lowest dose concentration with effective IOP reduction, a 50 μL topical ocular administration of 10 mM CKLP1 was selected as the optimal dose for all subsequent experiments.
IOP was measured three times each day at times that corresponded to 1 hour, 4 hours and 23 hours post treatment. The average of the measurements at three time points on any given day was recorded as the daily IOP.
For the dose response study, baseline IOP measurements were obtained and recorded (three consecutive days prior to treatment). One eye of each dog was treated with a 50 μL topical ocular administration of 5 mM CKLP1 and the contralateral eye was treated with 10 mM CKLP1 once daily for 5 consecutive days. After 5 days, the eyes that received 5 mM CKLP1 was treated with 15 mM CKLP1 while the eye with 10 mM CKLP1 received 20 mM CKLP1. IOPs were measured every day at times corresponding to 1, 4, and 23 hours post treatment. For all experiments, the right eye was used as control while the left eye was selected as the treatment eye.

[3] = tested on: normotensive hound dogs (IOP); test: Extended-dose (61 days) study of CKLP1 on IOP in hound dogs; assay type: in vivo, hound dog
Method: To evaluate the effect of IOP lowering long-term, hound dogs (n=5) were treated with 10 mM CKLP1 in one eye and vehicle (PBS) in the contralateral eye once daily for 61 consecutive days. […] On average, IOP was reduced by 18.9±1.3% (reduction of 3.0±0.5 mmHg; p<0.001) in all five hound dogs over the entire treatment period. Additionally, no significant change in systolic (baseline, 141.0±6.7; treatment, 138.9±9.5; p=0.56) or diastolic (baseline, 80.1±8.9; treatment, 78.1±5.9; p=0.76) blood pressure was observed during the treatment period (FIG. 7B). Hound dogs were also evaluated for eye redness, swelling of the eye or eyelids, unusual discharge from eye and overall food intake.
For the extended dose study, baseline IOPs were measured three times daily for 5 consecutive days. The average of the three measurements was recorded as the daily IOP and averaged over the 5 days for the final pre-treatment value. Following baseline IOP measurements, dogs (n=5) were treated with 10 mM CKLP1 in one eye, while the contralateral eye received vehicle (PBS). IOP was measured at least three times every week at times corresponding to 1, 4, and 23 hours post treatment. Blood pressure was measured three times each week at the 4 hour post treatment time point.

[4] = In vitro conversion of CKLP1 to levcromakalim in human ocular tissues and fluids; assay type: in vitro ADME; details: 10 μM CKLP1, 37° C.
Method: Aqueous humor was collected from each eye and combined in a single 1.5-mL tube. The eyes were then bisected at the equator, and vitreous humor was collected from both eyes, combined, and placed in a 15-mL conical tube and centrifuged at 1500 rpm for 10 minutes. Following centrifugation, the upper supernatant phase (less viscous region) was isolated and placed in a 1.5-mL tube. Tubes containing aqueous and vitreous humor were stored on ice. The following tissues were dissected from the eyes: cornea, retina, optic nerve, sclera, iris, ciliary body, and trabecular meshwork. The tissue samples were placed in 1.5-mL tubes containing approximately 200 μL of 50 mM Tris buffer pH 7.1. Each sample, except for the optic nerve sample, contained tissue from both eyes. Samples were stored on ice. Tissues were independently homogenized with a Polytron PT 1200 (setting 8) and placed on ice. The trabecular meshwork was lysed using a small pestle. In between samples, the homogenizer was cleaned and washed thoroughly with a minimum of 200 mL of distilled water.
Remaining tissue and debris were pelleted in an Eppendorf 5415C centrifuge at 13,000 rpm for 2 minutes. Supernatants were isolated and placed in clean 1.5-mL tubes. A Bradford protein assay was performed with 5 μL of supernatant of each sample. At the completion of the assay, 200-μL aliquots of each sample were placed in a 96-well plate, and protein concentrations were read using a TECAN Infinite® M200 plate reader at 595 nm. The final concentrations for all samples was 150 μg of protein in a solution of 10 μM CKLP1, except for vitreous humor, which only contained 100 μg of protein in 10 μM CKLP1 due to low protein concentration. There were 18 samples in total. Samples were mixed, briefly centrifuged and then, for each sample, a 100-μL portion was removed and placed in a new tube so that both tubes contained 100 μL (75 μg of protein each except vitreous humor, which contained 50 μg each). All pairs of samples were placed in incubation at 37° C. For each pair of tubes, one tube was incubated for 4 hours and one tube for 24 hours. At the completion of the incubation period, 200 μL of acetonitrile was added to each tube and mixed. Tubes were briefly centrifuged and placed at −80° C.

[5] = tested on: α-SMA, CD31, endothelin-I, fibronectin, VE-cadherin, phospho-eNOS and total eNOS; test: Protein expression (western blot, immunocytochemistry) in 3D HTM/SC constructs; assay type: cell-based, human; details: levcromakalim 1, 10 or 100 μM; Y-27632 10 μM
Method: Bioengineered 3D conventional outflow tract constructs using 4 donors (ages 47-91) were treated with […] (5 ng/mL) for 6 days. […] Protein expression of α-smooth muscle actin (α-SMA), CD31, endothelin-I, fibronectin, VE-cadherin, phospho-eNOS and total eNOS was analyzed via western blot. Cellular expression of α-SMA, fibronectin, phospho-eNOS and total eNOS was determined by immunocytochemistry and confocal microscopy. Statistical significance was determined by one-way ANOVA with a Tukey's multiple comparisons test, or by two-way ANOVA.

[6] = 10 mM CKLP1 topical once daily, 7 days
[7] = 10 mM CKLP1 once daily, 61 days, vs vehicle eye

SMILES: CC1(C)Oc2ccc(C#N)cc2[C@@H](N2CCCC2=O)[C@@H]1OP(=O)(O)O [CKLP1]
- IOP reduction compared to baseline [1, 6]: 3.8±1.8 mmHg
- change in IOP [1, 6]: 16.7±6.7%
- IOP lowered by (summary) ([1]; African green monkeys): approximately 17%
- IOP lowering, all concentrations ([2]; 5 mM, 10 mM, 15 mM and 20 mM, p≤0.01): significant IOP lowering
- IOP lowering ([2]; 10 mM CKLP1 topical once daily): 2.3±0.5 mmHg
- IOP lowering ([2]; 15 mM CKLP1 topical once daily): 2.5±0.4 mmHg
- average IOP in treated eye ([3]; 10 mM CKLP1 once daily, 61 consecutive days): 12.9±2.0 mmHg
- eye redness, swelling of the eye or eyelids, unusual discharge from eye, food intake ([3]; 10 mM CKLP1 once daily, 61 days): No notable findings
- IOP reduced by [3, 7]: 18.9±1.3%
- IOP reduction [3, 7]: 3.0±0.5 mmHg
- return of IOP to baseline after CKLP1 administration ([3]; dogs (FIG. 7A), same effect in African green monkeys (FIG. 8A)): greater than 24 hours
- IOP lowered by (summary) ([3]; hound dogs): approximately 19%
- conversion of CKLP1 to levcromakalim over 24 hours ([4]; human aqueous humor): not
- conversion of CKLP1 to levcromakalim over 24 hours ([4]; human ciliary body): 2.6%
- conversion of CKLP1 to levcromakalim over 24 hours ([4]; human cornea): 0.8%
- conversion of CKLP1 to levcromakalim over 24 hours ([4]; human iris): 3.9%
- conversion of CKLP1 to levcromakalim over 24 hours ([4]; human optic nerve): 0.9%
- conversion of CKLP1 to levcromakalim over 24 hours ([4]; human retina): 0.7%
- conversion of CKLP1 to levcromakalim over 24 hours ([4]; human sclera): 1.6%
- conversion of CKLP1 to levcromakalim over 24 hours ([4]; human trabecular meshwork): 1.6%
- conversion of CKLP1 to levcromakalim over 24 hours ([4]; human vitreous humor): not

SMILES: CC1(C)Oc2ccc(C#N)cc2[C@@H](N2CCCC2=O)[C@@H]1O [Levcromakalim, levcromakalim, reference compound]
- expression of the cell adhesion proteins CD31 and VE-Cadherin [5]: did not significantly affect
